In US20230021483A1, “[…] […] METHOD AND CLASSIFICATION OF PHARMACEUTICAL COMPONENTS BY USING TRANSCRIPTOMES” (National Institutes of Biomedical Innovation, Health and …, priority 2016, published 2023):

Tested on: preferentially upregulated genes in LV, SP, LN
Assay: Z-score-based differential gene expression analysis (adjuvant group- or adjuvant-associated genes, 40 module mapping, TargetMine annotation)
Format: in vivo, C57BL/6 mice
Settings: ID
How it was run: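 Gene groups for each organ were built from combined z-score cutoffs across adjuvants, ranging from z>1 to z>3. Scores came from fold changes standardized per gene over the whole organ data set, with the three replicate z-scores added per adjuvant; sums above 3 marked preferential expression.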

Compound: Cc1ccc2c(=O)c3cccc(CC(=O)O)c3oc2c1C [DMXAA, 5,6-dimethylxanthenone-4-acetic acid]
- z sum, 1428027_at LOC100653389 (LN, Modules 26): −2.22
- z sum, 1419721_at Niacr1 (LN, Modules 27): −1.88
- z sum, 1418424_at Tnfaip6 (LN, Modules 29): −1.91
- z sum, 1419534_at Olr1 (LN, Modules 29): −1.6
- z sum, 1421457_a_at Samsn1 (LN, Modules 29): −2.04
- z sum, 1422305_at Ifnb1 (LN, Modules 29): −1.99
- z sum, 1423028_at Ifna2 (LN, Modules 29): −2.04
- z sum, 1425837_a_at Ccrn4l (LN, Modules 29): −1.85
- z sum, 1436387_at C330006P03Rik///Homer1 (LN, Modules 29): −2.24
- z sum, 1439349_at Sbno2 (LN, Modules 29): −1.84
- z sum, 1444010_at Eif4e (LN, Modules 29): −1.94
- z sum, 1448325_at Ppp1r15a (LN, Modules 29): −1.63
- z sum, 1449311_at Bach1 (LN, Modules 29): −1.97
- z sum, 1450297_at Il6 (LN, Modules 29): −1.88
- z sum, 1455197_at Rnd1 (LN, Modules 29): −1.86
- z sum, 1455899_x_at Socs3 (LN, Modules 29): −1.79
- z sum (LN, Modules 34): −2.09
- z sum, 1417252_at Ptgs2 (LN, Modules 34): −1.55
- z sum, 1417263_at Ptgs2 (LN, Modules 34): −1.77
- z sum, 1421473_at Il1a (LN, Modules 34): −1.71
- z sum, 1439981_at Tespa1 (LN, Modules 35): −1.8
- z sum, 1441843_s_at 5230400M03Rik (LN, Modules 35): −2.25
- z sum, 1442556_at --- (LN, Modules 35): −2.03
- z sum, 1443414_at C78513 (LN, Modules 35): −2.02
- z sum, 1444598_at --- (LN, Modules 35): −2
- z sum, 1445534_at --- (LN, Modules 35): −2
- z sum, 1446245_at --- (LN, Modules 35): −2.34
- z sum, 1457944_at --- (LN, Modules 35): −2.16
- z sum, 1458376_at B930025B16Rik (LN, Modules 35): −2.11
- z sum, 1459144_at --- (LN, Modules 35): −2.06
- z sum, 1425687_at Cflar (LN, Modules 36): −1.76
- z sum, 1427736_a_at Ccrl2 (LN, Modules 36): −2.22
- z sum, 1449169_at Has2 (LN, Modules 36): −2.25
- z sum, 1453636_at Pcgf5 (LN, Modules 36): −2.11
- z sum, 1457888_at --- (LN, Modules 36): −2.02
- z sum, 1419508_at Ripk1 (LN, Modules 37): −2.04
- z sum, 1421578_at Ccl4 (LN, Modules 37): −1.85
- z sum, 1421679_a_at Cdkn1a (LN, Modules 37): −1.99
- z sum, 1424638_at Cdkn1a (LN, Modules 37): −1.71
- z sum, 1433508_at Klf6 (LN, Modules 37): −1.54
- z sum, 1434350_at Csrnp1 (LN, Modules 37): −1.99
- z sum, 1439680_at Tnfsf10 (LN, Modules 37): −2.27
- z sum, 1448724_at Cish (LN, Modules 37): −1.56
- z sum, 1451340_at Arid5a (LN, Modules 37): −2.28
- z sum, 1453851_a_at Gadd45g (LN, Modules 37): −2
- z sum, 1457404_at Nfkbiz (LN, Modules 37): −2.06
- z sum, 1458589_at --- (LN, Modules 37): −1.59
- z sum, 1422054_a_at 5kil (LN, Modules 40): −1.69
- z sum, 1428735_at Cd69 (LN, Modules 40): −2.42
- Adar 1425405_a_at (Group G1, Modules 20) (LV, sample x1): 2.03
- Adar 1434268_at (Group G1, Modules 20) (LV, sample x1): 2.15
- Ddx58 1436562_at (Group G1, Modules 20) (LV, sample x1): 2.07
- Ddx58 1456890_at (Group G1, Modules 20) (LV, sample x1): 1.67
- Eif2ak2 1422005_at (Group G1, Modules 20) (LV, sample x1): 1.36
- G3bp2 1421323_a_at (Group G1, Modules 20) (LV, sample x1): 1.32
- Gm9706///Isg15 1431591_s_at (Group G1, Modules 20) (LV, sample x1): 1.28
- H2-T10///H2-T22///H2-T9 1449875_s_at (Group G1, Modules 20) (LV, sample x1): 1.27
- Ifih1 1426276_at (Group G1, Modules 20) (LV, sample x1): 1.25
- Ifit1 1450783_at (Group G1, Modules 20) (LV, sample x1): 2.21
- Ifit3 1449025_at (Group G1, Modules 20) (LV, sample x1): 1.39
- Irf7 1417244_a_at (Group G1, Modules 20) (LV, sample x1): 1.05
- Irgm1 1418825_at (Group G1, Modules 20) (LV, sample x1): 1.39
- Mndal 1426906_at (Group G1, Modules 20) (LV, sample x1): 1.42
- Pml 1448757_at (Group G1, Modules 20) (LV, sample x1): 1.62
- Pml 1456103_at (Group G1, Modules 20) (LV, sample x1): 2.18
- Rnf213 1455500_at (Group G1, Modules 20) (LV, sample x1): 1.79
- Rsad2 1436058_at (Group G1, Modules 20) (LV, sample x1): 1.56
- Shisa5 1423986_a_at (Group G1, Modules 20) (LV, sample x1): 2.03
